Measurements: ChEMBL document CHEMBL5370537, “Aporphines: A privileged scaffold in CNS drug discovery” (Eur J Med Chem, 2023)

Legend:
[1] = target: T1, 5-hydroxytryptamine receptor 2C (Homo sapiens, UniProt P28335); experiment: Agonist activity at 5-HT2C (unknown origin); type: functional
T1 sequence (P28335 whole entry): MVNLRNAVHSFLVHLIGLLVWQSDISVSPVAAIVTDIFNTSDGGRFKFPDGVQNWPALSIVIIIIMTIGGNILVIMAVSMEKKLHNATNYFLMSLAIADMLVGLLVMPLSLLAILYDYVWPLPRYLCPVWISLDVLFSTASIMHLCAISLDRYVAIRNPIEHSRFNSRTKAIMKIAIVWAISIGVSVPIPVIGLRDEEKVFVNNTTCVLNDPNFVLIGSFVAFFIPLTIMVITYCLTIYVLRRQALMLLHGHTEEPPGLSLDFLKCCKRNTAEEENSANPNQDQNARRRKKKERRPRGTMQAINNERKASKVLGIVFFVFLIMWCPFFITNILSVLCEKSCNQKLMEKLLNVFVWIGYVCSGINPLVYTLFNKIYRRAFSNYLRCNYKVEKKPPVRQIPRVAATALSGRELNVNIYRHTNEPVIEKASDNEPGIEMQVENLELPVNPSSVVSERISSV

[2] = target: T2, 5-hydroxytryptamine receptor 2C (Homo sapiens) (UniProt P28335); experiment: Agonist activity at 5-HT2C (unknown origin) relative to control; type: functional; conditions: filed as agonist
T2 sequence (whole entry): T1 sequence (P28335 whole entry)

Cholinesterase = Cholinesterase (Equus caballus, UniProt P81908); experiment: Inhibition of equine serum BuChE using BTCI as substrate pre-incubated for 10 mins followed by substrate addition measured after 5 mins by microplate reader analysis
Cholinesterase, sequence (P81908 whole entry): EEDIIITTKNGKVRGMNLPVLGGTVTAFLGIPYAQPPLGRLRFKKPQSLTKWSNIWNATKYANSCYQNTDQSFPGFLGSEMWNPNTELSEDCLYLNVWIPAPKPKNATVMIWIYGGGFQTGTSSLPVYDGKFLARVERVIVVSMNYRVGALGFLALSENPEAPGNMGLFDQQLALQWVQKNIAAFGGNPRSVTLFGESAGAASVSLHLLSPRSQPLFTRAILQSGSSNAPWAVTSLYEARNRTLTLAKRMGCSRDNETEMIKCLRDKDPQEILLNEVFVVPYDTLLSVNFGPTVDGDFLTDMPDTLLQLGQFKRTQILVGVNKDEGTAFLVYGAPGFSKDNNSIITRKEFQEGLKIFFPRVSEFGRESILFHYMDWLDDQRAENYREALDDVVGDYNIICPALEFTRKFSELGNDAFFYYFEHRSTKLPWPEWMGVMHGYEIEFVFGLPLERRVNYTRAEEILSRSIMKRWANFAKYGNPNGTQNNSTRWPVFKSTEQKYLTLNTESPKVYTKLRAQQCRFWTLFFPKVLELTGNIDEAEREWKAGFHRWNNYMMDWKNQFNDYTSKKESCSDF

Acetylcholinesterase = Acetylcholinesterase (Electrophorus electricus, UniProt O42275); experiment: Inhibition of Electrophorus electricus AChE using ATCI as substrate pre-incubated for 10 mins followed by substrate addition measured after 5 mins by microplate reader analysis
Acetylcholinesterase, sequence (O42275 whole entry): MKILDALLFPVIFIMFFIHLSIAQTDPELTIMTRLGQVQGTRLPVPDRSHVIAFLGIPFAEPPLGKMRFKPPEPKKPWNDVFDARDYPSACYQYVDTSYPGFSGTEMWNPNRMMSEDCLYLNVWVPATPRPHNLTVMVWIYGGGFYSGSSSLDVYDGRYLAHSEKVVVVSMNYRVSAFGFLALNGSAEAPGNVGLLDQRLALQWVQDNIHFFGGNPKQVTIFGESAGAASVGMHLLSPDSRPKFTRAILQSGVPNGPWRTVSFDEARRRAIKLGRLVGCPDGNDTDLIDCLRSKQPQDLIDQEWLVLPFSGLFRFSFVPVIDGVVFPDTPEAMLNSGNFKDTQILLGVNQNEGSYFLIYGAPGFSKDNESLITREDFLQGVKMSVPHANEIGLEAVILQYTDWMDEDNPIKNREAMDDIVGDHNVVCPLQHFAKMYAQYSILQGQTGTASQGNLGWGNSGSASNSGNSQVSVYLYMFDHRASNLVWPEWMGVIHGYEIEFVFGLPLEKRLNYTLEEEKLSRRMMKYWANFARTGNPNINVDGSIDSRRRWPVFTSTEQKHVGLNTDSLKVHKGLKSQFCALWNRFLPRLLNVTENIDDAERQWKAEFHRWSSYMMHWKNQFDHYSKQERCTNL

[3] = target: Acetylcholinesterase (Electrophorus electricus) (UniProt O42275); experiment: Potency index, ratio of (S)-Dicentrine IC50 to test compound IC50 for inhibition of Electrophorus electricus AChE using ATCI as substrate pre-incubated for 10 mins followed by substrate addition measured after 5 mins by microplate reader analysis; conditions: time 15.0 min
Acetylcholinesterase (Electrophorus electricus), sequence (O42275 24-633 limits assumed): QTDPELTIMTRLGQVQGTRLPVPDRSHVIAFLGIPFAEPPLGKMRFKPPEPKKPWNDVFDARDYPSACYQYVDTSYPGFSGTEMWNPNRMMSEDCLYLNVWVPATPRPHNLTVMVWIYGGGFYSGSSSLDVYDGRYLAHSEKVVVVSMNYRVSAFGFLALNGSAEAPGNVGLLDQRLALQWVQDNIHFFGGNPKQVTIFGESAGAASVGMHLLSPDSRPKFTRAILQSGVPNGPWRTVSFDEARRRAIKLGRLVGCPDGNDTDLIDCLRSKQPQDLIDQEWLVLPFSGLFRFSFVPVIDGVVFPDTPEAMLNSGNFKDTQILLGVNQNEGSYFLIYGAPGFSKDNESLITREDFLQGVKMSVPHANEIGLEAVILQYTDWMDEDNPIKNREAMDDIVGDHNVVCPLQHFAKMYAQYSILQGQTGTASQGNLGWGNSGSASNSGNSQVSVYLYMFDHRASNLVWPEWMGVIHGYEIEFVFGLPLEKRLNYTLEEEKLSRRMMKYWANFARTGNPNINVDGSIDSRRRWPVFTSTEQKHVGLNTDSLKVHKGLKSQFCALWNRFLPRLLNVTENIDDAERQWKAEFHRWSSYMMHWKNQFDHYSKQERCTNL

[4] = target: Acetylcholinesterase (Electrophorus electricus) (UniProt O42275); experiment: Potency index, ratio of (R)-Stephanine IC50 to test compound IC50 for inhibition of Electrophorus electricus AChE using ATCI as substrate pre-incubated for 10 mins followed by substrate addition measured after 5 mins by microplate reader analysis; conditions: time 15.0 min
[5] = target: Acetylcholinesterase (Electrophorus electricus) (UniProt O42275); experiment: Potency index, ratio of (R)-Roemerine IC50 to test compound IC50 for inhibition of Electrophorus electricus AChE using ATCI as substrate pre-incubated for 10 mins followed by substrate addition measured after 5 mins by microplate reader analysis; conditions: time 15.0 min
D(1A) dopamine receptor = D(1A) dopamine receptor (Homo sapiens, UniProt P21728); experiment: Antagonist activity at D1R (unknown origin) transfected in HEK293 cells by FLIPR assay
D(1A) dopamine receptor, sequence (P21728 whole entry): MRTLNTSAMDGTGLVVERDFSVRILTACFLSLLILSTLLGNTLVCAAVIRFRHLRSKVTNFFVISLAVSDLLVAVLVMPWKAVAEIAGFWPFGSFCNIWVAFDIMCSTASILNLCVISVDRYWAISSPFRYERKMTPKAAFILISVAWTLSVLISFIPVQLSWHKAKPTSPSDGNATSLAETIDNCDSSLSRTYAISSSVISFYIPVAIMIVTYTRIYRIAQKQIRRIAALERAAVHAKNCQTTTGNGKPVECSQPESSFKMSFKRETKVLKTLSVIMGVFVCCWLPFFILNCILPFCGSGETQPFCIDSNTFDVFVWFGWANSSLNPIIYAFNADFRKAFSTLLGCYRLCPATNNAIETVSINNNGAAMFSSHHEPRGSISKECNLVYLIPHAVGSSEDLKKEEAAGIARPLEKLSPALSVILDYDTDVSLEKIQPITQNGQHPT

D(2) dopamine receptor = D(2) dopamine receptor (Homo sapiens, UniProt P14416); experiment: Antagonist activity at D2R (unknown origin); type: functional
D(2) dopamine receptor, sequence (P14416 whole entry): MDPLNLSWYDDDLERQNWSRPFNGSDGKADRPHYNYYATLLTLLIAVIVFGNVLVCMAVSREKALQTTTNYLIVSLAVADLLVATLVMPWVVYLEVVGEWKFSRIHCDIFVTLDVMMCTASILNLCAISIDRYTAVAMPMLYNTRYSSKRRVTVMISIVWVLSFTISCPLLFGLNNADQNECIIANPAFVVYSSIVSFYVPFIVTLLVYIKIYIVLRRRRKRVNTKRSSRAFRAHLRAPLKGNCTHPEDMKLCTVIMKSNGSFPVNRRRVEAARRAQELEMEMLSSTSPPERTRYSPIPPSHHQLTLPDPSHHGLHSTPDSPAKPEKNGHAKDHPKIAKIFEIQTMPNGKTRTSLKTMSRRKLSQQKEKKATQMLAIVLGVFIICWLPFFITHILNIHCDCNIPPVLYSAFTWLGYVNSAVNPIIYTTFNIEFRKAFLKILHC

SH-SY5Y = experiment: Neuroprotective activity against human SH-SY5Y cells assessed as increase in BDNF level measured after 48 hrs; type: functional, cell-based
BV-2 [6] = experiment: Potency index, ratio of minocycline IC50 to test compound IC50 for inhibition of NO production in LPS-induced mouse BV-2 cells incubated for 24 hrs by Griess reagent based microplate reader analysis; type: functional
BV-2 [7] = experiment: Inhibition of NO production in LPS-induced mouse BV-2 cells incubated for 24 hrs by Griess reagent based microplate reader analysis; type: functional, cell-based; conditions: BV-2, 24 h
[8] = target: T3, Alpha-1B adrenergic receptor (Homo sapiens) (UniProt P35368); experiment: Binding affinity to human alpha1B adrenergic receptors transfected in HEK293 cells assessed as antagonist dissociation constant measured after 1 hrs; type: cell-based; conditions: filed as antagonist
T3 sequence (whole entry): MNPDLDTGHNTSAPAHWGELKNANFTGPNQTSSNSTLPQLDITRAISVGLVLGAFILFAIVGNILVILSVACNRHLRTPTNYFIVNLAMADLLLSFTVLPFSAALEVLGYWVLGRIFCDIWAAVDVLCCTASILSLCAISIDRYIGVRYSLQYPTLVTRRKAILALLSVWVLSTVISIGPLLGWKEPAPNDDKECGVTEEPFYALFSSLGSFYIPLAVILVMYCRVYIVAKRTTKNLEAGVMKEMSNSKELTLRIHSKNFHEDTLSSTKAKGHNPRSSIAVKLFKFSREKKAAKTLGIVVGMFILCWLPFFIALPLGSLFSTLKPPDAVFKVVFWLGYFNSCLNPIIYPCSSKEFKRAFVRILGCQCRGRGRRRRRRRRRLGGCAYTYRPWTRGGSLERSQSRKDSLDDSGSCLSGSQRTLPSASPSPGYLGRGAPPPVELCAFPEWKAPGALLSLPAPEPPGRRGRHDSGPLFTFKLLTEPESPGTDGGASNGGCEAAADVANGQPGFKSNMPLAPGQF

[9] = target: 5-hydroxytryptamine receptor 2A (Homo sapiens, UniProt P28223); experiment: Binding affinity to human 5-HT2A transfected in HEK293 cells assessed as antagonist dissociation constant measured after 1 hrs; type: cell-based; conditions: filed as antagonist
5-hydroxytryptamine receptor 2A, sequence (P28223 whole entry): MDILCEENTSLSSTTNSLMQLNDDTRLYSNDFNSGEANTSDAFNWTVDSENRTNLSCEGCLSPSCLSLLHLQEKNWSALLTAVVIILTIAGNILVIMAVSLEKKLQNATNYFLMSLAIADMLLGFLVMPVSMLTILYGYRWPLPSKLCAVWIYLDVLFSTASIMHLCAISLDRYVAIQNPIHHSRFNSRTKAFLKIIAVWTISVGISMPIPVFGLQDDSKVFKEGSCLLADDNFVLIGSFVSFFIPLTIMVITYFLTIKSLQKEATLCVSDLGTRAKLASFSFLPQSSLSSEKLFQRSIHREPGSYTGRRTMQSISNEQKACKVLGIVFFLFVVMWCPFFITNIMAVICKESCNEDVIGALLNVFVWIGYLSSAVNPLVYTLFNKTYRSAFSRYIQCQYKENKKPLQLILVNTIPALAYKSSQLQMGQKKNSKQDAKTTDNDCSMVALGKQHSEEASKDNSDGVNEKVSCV

[10] = target: T2, 5-hydroxytryptamine receptor 2C (Homo sapiens); experiment: Binding affinity to human 5-HT2C transfected in HEK293 cells assessed as antagonist dissociation constant measured after 1 hrs; type: cell-based; conditions: filed as antagonist
[11] = target: T4, Alpha-1A adrenergic receptor (Homo sapiens) (UniProt P35348); experiment: Binding affinity to human alpha1A adrenergic receptors transfected in HEK293 cells assessed as antagonist dissociation constant measured after 1 hrs; type: cell-based; conditions: filed as antagonist
T4 sequence (whole entry): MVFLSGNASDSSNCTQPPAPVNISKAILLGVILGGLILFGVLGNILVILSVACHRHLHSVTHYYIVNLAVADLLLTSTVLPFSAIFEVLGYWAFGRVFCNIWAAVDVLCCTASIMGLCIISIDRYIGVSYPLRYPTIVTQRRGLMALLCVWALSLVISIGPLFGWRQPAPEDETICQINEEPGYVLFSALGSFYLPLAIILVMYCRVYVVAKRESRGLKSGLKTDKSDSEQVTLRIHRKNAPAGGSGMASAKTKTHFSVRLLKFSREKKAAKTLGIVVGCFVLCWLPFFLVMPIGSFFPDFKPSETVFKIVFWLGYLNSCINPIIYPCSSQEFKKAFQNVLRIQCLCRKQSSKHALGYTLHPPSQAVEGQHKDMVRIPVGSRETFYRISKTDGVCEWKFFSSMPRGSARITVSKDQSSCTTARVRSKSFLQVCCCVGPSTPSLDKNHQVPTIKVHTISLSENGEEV

[12] = target: T5, Alpha-1D adrenergic receptor (Homo sapiens) (UniProt P25100); experiment: Binding affinity to human alpha1D adrenergic receptors transfected in HEK293 cells assessed as antagonist dissociation constant measured after 1 hrs; type: cell-based; conditions: filed as antagonist
T5 sequence (whole entry): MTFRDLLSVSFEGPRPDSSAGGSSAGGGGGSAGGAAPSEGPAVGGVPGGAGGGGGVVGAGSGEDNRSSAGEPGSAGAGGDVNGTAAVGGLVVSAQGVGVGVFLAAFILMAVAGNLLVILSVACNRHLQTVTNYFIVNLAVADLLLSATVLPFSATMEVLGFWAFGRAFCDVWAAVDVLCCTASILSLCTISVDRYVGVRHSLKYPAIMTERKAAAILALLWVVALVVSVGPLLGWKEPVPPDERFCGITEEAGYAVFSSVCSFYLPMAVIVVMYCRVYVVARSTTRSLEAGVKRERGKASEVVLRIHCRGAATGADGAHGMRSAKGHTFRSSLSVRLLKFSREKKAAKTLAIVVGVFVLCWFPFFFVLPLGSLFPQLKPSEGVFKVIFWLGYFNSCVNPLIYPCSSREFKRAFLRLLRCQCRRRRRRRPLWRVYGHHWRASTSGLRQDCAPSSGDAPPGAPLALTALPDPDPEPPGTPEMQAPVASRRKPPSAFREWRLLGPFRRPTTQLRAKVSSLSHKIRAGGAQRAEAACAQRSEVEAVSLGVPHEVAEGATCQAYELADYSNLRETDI

[13] = target: 5-hydroxytryptamine receptor 2B (Homo sapiens, UniProt P41595); experiment: Binding affinity to human 5-HT2B transfected in HEK293 cells assessed as antagonist dissociation constant measured after 1 hrs; type: cell-based; conditions: filed as antagonist
5-hydroxytryptamine receptor 2B, sequence (P41595 whole entry): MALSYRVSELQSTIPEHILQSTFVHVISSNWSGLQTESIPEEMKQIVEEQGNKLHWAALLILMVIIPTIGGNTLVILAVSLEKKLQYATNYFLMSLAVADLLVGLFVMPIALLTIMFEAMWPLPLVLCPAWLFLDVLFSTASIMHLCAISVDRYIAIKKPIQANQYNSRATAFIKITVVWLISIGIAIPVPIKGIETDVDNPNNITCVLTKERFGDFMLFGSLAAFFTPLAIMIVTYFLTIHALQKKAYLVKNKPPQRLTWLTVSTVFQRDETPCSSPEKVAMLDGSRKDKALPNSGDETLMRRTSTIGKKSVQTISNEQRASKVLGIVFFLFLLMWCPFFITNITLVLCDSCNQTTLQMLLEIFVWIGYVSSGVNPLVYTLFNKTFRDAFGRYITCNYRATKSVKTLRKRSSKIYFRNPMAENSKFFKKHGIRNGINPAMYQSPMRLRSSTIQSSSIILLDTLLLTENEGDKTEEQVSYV

Structure (SMILES) | IC50 (Cholinesterase) [µM] | IC50 (Acetylcholinesterase) [µM] | IC50 (BV-2 [7]) [µM] | other results
Oc1cc2c3c(c1Cl)-c1ccccc1C[C@H]3NCC2 | – | – | – | EC50 [1]: 0.304 µM; Emax [2]: 41.6%
COc1ccc2c(c1)C[C@@H]1c3c(cc4c(c3-2)OCO4)CCN1C | 16.6 | 11.9 | – | –
COc1cc2cc3c4c(cc5c(c4c2cc1OC)OCO5)CCN3C [DEHYDRODICENTRINE] | 5.57 | 1.09 | – | Ratio IC50 [3]: 4; Ratio IC50 [4]: 4; Ratio IC50 [5]: 4
COc1c(O)cc2c3c1-c1ccccc1CC3NCC2 (centres undefined) | – | – | – | IC50 (D(1A) dopamine receptor): 7.2 µM
COc1cc2c3c(c1OC)-c1cc(O)ccc1C[C@H]3NCC2 | – | – | – | IC50 (D(2) dopamine receptor): 5.2 µM
COc1ccc2c(c1OC)C[C@@H]1c3c(cc4c(c3-2)OCO4)CCN1C | 17.4 | 10.5 | 5.26 | IC50 (SH-SY5Y): 5.26 µM; Ratio IC50 (BV-2 [6]): 3
COc1ccc2c(c1OC)[C@@H](O)[C@@H]1c3c(cc4c(c3-2)OCO4)CCN1C | 22.5 | 4.3 | – | –
CN1CCc2cc3c(c4c2c1cc1ccccc14)OCO3 [DEHYDROROEMERINE] | 3.34 | 1.21 | 1.3 | –
CN(C)c1ccc(O)c2c1C[C@H]1C[C@H]3[C@H](N(C)C)C(O)=C(C(N)=O)C(=O)[C@@]3(O)C(O)=C1C2=O [MINOCYCLINE] | – | – | 15.5 | –
COc1cc2c(cc1OC)-c1c3c(cc4c1[C@H](C2)N(C)CC4)OCO3 [DICENTRINE] | 26.4 | 6.11 | – | Kb [8]: 0.155 µM; Kb [9]: 0.0839 µM; Kb [10]: 0.776 µM; Kb [11]: 0.163 µM; Kb [12]: 0.181 µM; Kb [13]: 0.208 µM
COc1ccc2c(c1)cc1c3c(cc4c(c32)OCO4)CCN1C | – | – | 31.6 | –
COc1c(O)ccc2c1cc1c3c(cc4c(c32)OCO4)CCN1C | – | – | 39.2 | –
COc1cccc2c1C[C@@H]1c3c(cc4c(c3-2)OCO4)CCN1C [STEPHANINE] | 2.8 | 11.3 | 20.3 | Ratio IC50 (BV-2 [6]): ~4; IC50 (D(2) dopamine receptor): 0.85 µM
Oc1cc2c3c(c1Cl)-c1ccccc1C[C@@H]3NCC2 | – | – | – | EC50 [1]: 0.0079 µM; Emax [2]: 89.8%
